Laboratory results: paper PMC6148246, “HS-1371, a novel kinase inhibitor of RIP3-mediated necroptosis” (Experimental & Molecular Medicine, 2018)

Key:
RIP3 = RIP3 (Homo sapiens, UniProt Q9Y572); assay: Basal S227 auto-phosphorylation of RIP3 in HT-29 cells (immunoblot); type: cell-based; set-up: RIP3-expressing HT-29 cells; endogenous in cells; host or cells: HT-29; settings: 10 μM, 9 h
Method: Cells were rinsed in cold phosphate-buffered saline (PBS) and lysed in M2 buffer containing 20 mM Tris at pH 7, 0.5% NP-40, 250 mM NaCl, 3 mM EDTA, 3 mM EGTA, 2 mM DTT, 0.5 mM PMSF, 20 mM β-glycerol phosphate, 1 mM sodium vanadate, and 1 μg/mL leupeptin. The cell extracts were subjected to western blot analysis. For immunoprecipitation, lysates were mixed and precipitated with antibody and protein A-agarose beads overnight or for 4 h at 4 °C. Bound proteins were removed by boiling in SDS and resolved by SDS-PAGE, and immunoblotting was visualized by enhanced chemiluminescence (ECL, Amersham).
RIP3 kinase activity is essential for TNF-induced necroptosis, and human S227 auto-phosphorylation sites of RIP3 are required for the interaction of RIP3 with its substrate MLKL[13],[14], which is indispensable for downstream necroptotic cell death signaling. To test the possible effects of the RIP3 inhibitors on necroptosis, HT-29 cells were treated with the kinase inhibitors, and RIP3 kinase activity was determined by examining its phosphorylation status.
Fig. 2 Novel inhibitors can block RIP3 S227 phosphorylation. a Western blotting showing various kinase inhibitor effects on RIP3 S227 auto-phosphorylation. HT-29 cells were treated with four tested kinase inhibitors (1308, 1336, 1338, and 1371, 10 μM) for 9 h. As a control, KK5101 (Trk alpha inhibitor) and HS829 (IKK beta inhibitor) were also treated at a concentration of 10 μM for 9 h. Prototypical necroptosis stimuli (TNF + zVAD + either cycloheximide or SMAC mimetic; hereafter referred to as TCZ or TSZ) were applied for 6 h. […] HT-29 cells were treated with 4 tested kinase inhibitors for 24 h, and cell viability was analyzed by MTT assay or phase-contrast microscopy. […] HT-29 cells were pretreated with necrostatin-1 (Nec-1, 40 μM), dabrafenib (DAB, 10 μM) or necrosulfonamide (NSA, 1 μM) for 2 h and then treated with TSZ for 6 h. […] HT-29 cells were pretreated with four tested kinase inhibitors for 2 h and then treated with TSZ for 6 h. Cell lysates were analyzed by immunoblotting. f HT-29 cells were pretreated with Nec-1 (40 μM), DAB (5 μM) or HS-1371 (5 μM) for 2 h and then treated with TSZ for 4 h. Cell lysates were immunoprecipitated with anti-RIP3 antibody. Immunoprecipitates and total lysates were analyzed by Western blotting

H2009 cells = H2009 cells ectopically expressing RIP3, TSZ-induced necroptosis; type: cell-based, human; settings: H2009 with ectopic RIP3
Method: (§1) HEK293T, HT-29, H2009, L929, HeLa, and MEF cells were grown in Dulbecco’s Modified Eagle’s Medium (DMEM) supplemented with 10% fetal bovine serum (FBS). RAW264.7 cells were grown in Roswell Park Memorial Institute (RPMI) 1640 media supplemented with 10% FBS. To generate cell lines stably expressing the RIP3 construct, HeLa and H2009 cells were infected with pLX303-hRIP3 lentivirus.
(§2) Cells were pretreated with DAB or HS-1371 for 2 h and then treated with TSZ (6 h for immunoblotting, 24 h for cell death assay). Cell lysates were analyzed by immunoblotting (left bottom panel), and cell viability was analyzed by MTT assay (right panel). The results are presented as means ± SEM. *P < 0.05, **P < 0.01, ***P < 0.001. c, d HS-1371 had the same effect on mouse cells. L929 (mouse sarcoma, c) and MEF (mouse embryonic fibroblast, d) cells were pretreated with inhibitors and then necroptosis was induced by TNF. Cell lysates were analyzed by immunoblotting (upper panel), and cell viability was analyzed by MTT assay (bottom panel). The results are presented as means ± SEM. *P < 0.05, **P < 0.01, ***P < 0.001

HeLa cells = HeLa cells ectopically expressing RIP3 (immunoblot, MTT); type: cell-based, human
Method: as §1, §2

[1] = system: RAW264.7 macrophage cells; assay: LPS plus zVAD-induced cytokine expression in RAW264.7 cells (real-time PCR); type: cell-based, mouse; settings: RAW264.7, LPS + zVAD, 5 and 10 μM, pre 1 h or post 2 h
Method: Total RNA was extracted using the TRIzol reagent (Life Technologies) according to the manufacturer’s instructions. Total RNA (1 μg) from each sample was converted to cDNA using MMLV reverse transcriptase (MGmed, Seoul, Korea). Equal amounts of cDNA product were used in reverse transcription-PCR conducted using the GoTaq® Green Master Mix (Promega). Real-time PCR amplification was performed using iQ™ SYBR® Green Supermix (Bio-rad). […]
HeLa, L929, and MEF cells were pretreated with HS-1371 (5 μM) for 2 h, and treated with TNF (30 ng/mL) for indicated time points. Cell lysates were analyzed by immunoblotting. […]
(a) RAW264.7 cells were treated with LPS (1 μg/mL) for indicated time points and cell lysates were analyzed by immunoblotting.
(b) RAW264.7 cells were pretreated with zVAD (20 μM) for 1 h and then treated with LPS (1 μg/mL) for indicated time points. Cell lysates were analyzed by immunoblotting.
(c) IL-6, TNF-α, and IL-1β expression levels were determined by RT-PCR analysis. […]
(d) RAW264.7 cells were pretreated with zVAD (20 μM) and HS-1371 (5 μM) for 1 h and then treated with LPS (1 μg/mL) for 4 h. Cell lysates were analyzed by immunoblotting (left panel).
IL-1β and IL-6 expression levels were determined by real-time PCR analysis. […]
(e) IL-1β, IL-6 and TNF-α expression levels were determined by real -time PCR analysis. […]

RIP3, sequence (Q9Y572 whole entry): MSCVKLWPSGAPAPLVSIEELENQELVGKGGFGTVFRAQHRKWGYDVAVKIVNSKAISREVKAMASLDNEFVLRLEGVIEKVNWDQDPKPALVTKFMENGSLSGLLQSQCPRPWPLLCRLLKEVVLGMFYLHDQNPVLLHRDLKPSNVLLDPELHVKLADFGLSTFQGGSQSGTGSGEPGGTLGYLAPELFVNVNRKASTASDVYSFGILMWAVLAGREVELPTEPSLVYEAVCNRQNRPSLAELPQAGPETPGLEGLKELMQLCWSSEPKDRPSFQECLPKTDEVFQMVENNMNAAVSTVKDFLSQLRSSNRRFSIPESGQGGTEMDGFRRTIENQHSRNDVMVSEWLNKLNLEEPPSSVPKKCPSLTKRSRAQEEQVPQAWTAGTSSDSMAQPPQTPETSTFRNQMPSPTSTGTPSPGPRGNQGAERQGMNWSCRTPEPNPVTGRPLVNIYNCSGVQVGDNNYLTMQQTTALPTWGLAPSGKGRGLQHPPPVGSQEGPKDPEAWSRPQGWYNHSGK

Cc1ccc(Oc2ccnc3cc(-c4cnn(C5CCNCC5)c4)ccc23)cc1 [HS-1371, 7-(1-(Piperidin-4-yl)-1H-pyrazol-4-yl)-4-(p-tolyloxy)quinoline]
effect on S227 auto-phosphorylation of RIP3 at the basal level (RIP3): inhibitory effect
TSZ-induced necroptosis (H2009 cells): prevented
basal RIP3 phosphorylation (HeLa cells; HeLa with ectopic RIP3, 6 h, dose-dependent): decreased
cell viability after TSZ (HeLa cells; HeLa with ectopic RIP3, TSZ 24 h, MTT, dose-dependent): gradually increased
TSZ-induced RIP3 phosphorylation and MLKL phosphorylation (HeLa cells; HeLa with ectopic RIP3, pretreated 2 h, TSZ 6 h): effectively blocked
IL-1β, IL-6 and TNF-α expression [1]: reduced
